Reference: ChEMBL document CHEMBL5247616, “Discovery of a NADPH oxidase inhibitor, (E)-3-cyclohexyl-5-(4-((2-hydroxyethyl)(methyl)amino)benzylidene)-1-methyl-2-thioxoimidazolidin-4-oneone, as a novel therapeutic for Parkinson's disease” (Eur J Med Chem, 2022)
Activity calls are given as the source filed them. No cut-off for these calls is given here.

Experiments:
[1] = Dose normalized clearance in rat at 20 mg/kg, po measured after 24 hrs by HPLC-UV method; type: ADME, organism-based; settings: in vivo
[2] = Toxicity in male ICR mouse assessed as survival rate at 100 mg/kg, po administered as single dose for 14 days; type: organism-based; settings: in vivo, time 14 day
[3] = Metabolic stability in human liver microsomes assessed as parent compound remaining preincubated for 5 mins followed by NADPH addition and measured after 30 mins by LC-MS/MS analysis; type: ADME, Microsome; settings: read-out: Stability
[4] = Elimination rate constant in rat at 10 mg/kg, po measured after 24 hrs by HPLC-UV method; type: ADME, organism-based; settings: in vivo, read-out: Ke (converted)
Mus musculus [5] = experiment: Antineuroinflammatory activity against MPTP induced parkinson's disease in C57BL/6 mouse model assessed as decrease in IbA1+ microglial cells in substantia nigra at 10 mg/kg, po administered for 8 days by immunohistochemistry analysis; type: functional, organism-based; settings: time 8.0 day
[6] = Toxicity in male ICR mouse assessed as survival rate at 1000 mg/kg, po administered as single dose for 14 days; type: organism-based; settings: in vivo, time 14 day
[7] = Oral bioavailability in rat at 20 mg/kg measured after 24 hrs by HPLC-UV method; type: ADME, organism-based; settings: in vivo
[8] = Toxicity in female ICR mouse assessed as survival rate at 10 mg/kg, iv administered as single dose for 14 days; type: organism-based; settings: in vivo, time 14 day
[9] = Permeability coefficient of the compound across blood brain barrier at pH 7.4 incubated for 4 hrs by PAMPA assay; type: ADME; settings: read-out: permeability
[10] = AUClast in rat at 10 mg/kg, po measured after 24 hrs by HPLC-UV method; type: ADME, organism-based; set-up: dose 10 mg/kg, time 24 hrs, route po; settings: in vivo
BV-2 [11] = experiment: Antiinflammatory activity in mouse BV-2 cells assessed as suppression of LPS-stimulated iNOS production at 10 uM measured after 24 hrs by qPCR analysis; type: functional, cell-based
[12] = Toxicity in female ICR mouse assessed as survival rate at 300 mg/kg, po administered as single dose for 14 days; type: organism-based; settings: in vivo, time 14 day
[13] = Volume of distribution in rat at 2 mg/kg, iv measured after 24 hrs by HPLC-UV method; type: ADME, organism-based; settings: in vivo
[14] = AUClast in rat at 20 mg/kg, po measured after 24 hrs by HPLC-UV method; type: ADME, organism-based; set-up: dose 20 mg/kg, time 24 hrs, route po; settings: in vivo
Mus musculus [15] = experiment: Antineuroinflammatory activity against MPTP induced parkinson's disease in C57BL/6 mouse model assessed as […] tyrosine hydroxylase positive dopaminergic neuron in substantia nigra at 10 mg/kg, po administered for 8 days by immunohistochemistry analysis; type: functional, organism-based; settings: time 8.0 day
BV-2 [16] = experiment: Inhibition of LPS-induced ROS production in mouse BV-2 cells preincubated for 30 mins followed by LPS addition and measured at 10 sec interval for 15 mins by lucigenin based chemiluminescence assay; type: functional, cell-based; settings: dose 1-10000 nM, time 45.0 min
[17] = Elimination rate constant in rat at 20 mg/kg, po measured after 24 hrs by HPLC-UV method; type: ADME, organism-based; settings: in vivo, read-out: Ke (converted)
[18] = Clearance in rat at 2 mg/kg, iv measured after 24 hrs by HPLC-UV method; type: ADME, organism-based; settings: in vivo
[19] = Dose normalized clearance in rat at 10 mg/kg, po measured after 24 hrs by HPLC-UV method; type: ADME, organism-based; settings: in vivo, read-out: Dose normalized clearance (converted)
[20] = Toxicity in male ICR mouse assessed as survival rate at 100 mg/kg, iv administered as single dose for 14 days; type: organism-based; settings: in vivo, time 14 day
[21] = Toxicity in male ICR mouse assessed as survival rate at 30 mg/kg, iv administered as single dose for 14 days; type: organism-based; settings: in vivo, time 14 day
[22] = Toxicity in male ICR mouse assessed as survival rate at 300 mg/kg, po administered as single dose for 14 days; type: organism-based; settings: in vivo, time 14 day
[23] = Toxicity in female ICR mouse assessed as survival rate at 30 mg/kg, iv administered as single dose for 14 days; type: organism-based; settings: in vivo, time 14 day
BV-2 [24] = experiment: Inhibition of cell migration in LPS-induced mouse BV-2 cells at 10 uM incubated for 24 hrs by crystal violet staining based transwell assay; type: functional
BV-2 [25] = experiment: Antiinflammatory activity in mouse BV-2 cells assessed as suppression of LPS-stimulated IL1beta production at 10 uM measured after 24 hrs by qPCR analysis; type: functional, cell-based
[26] = Elimination rate constant in rat at 2 mg/kg, iv measured after 24 hrs by HPLC-UV method; type: ADME, organism-based; settings: in vivo, read-out: Ke (converted)
BV-2 [27] = experiment: Antiinflammatory activity in mouse BV-2 cells assessed as suppression of LPS-stimulated TNFalpha production at 10 uM measured after 24 hrs by qPCR analysis; type: functional, cell-based
[28] = Toxicity in female ICR mouse assessed as survival rate at 100 mg/kg, po administered as single dose for 14 days; type: organism-based; settings: in vivo, time 14 day
[29] = C0 in rat plasma at 2 mg/kg, iv measured after 24 hrs by HPLC-UV method; type: ADME, organism-based
[30] = Toxicity in female ICR mouse assessed as survival rate at 300 mg/kg, iv administered as single dose for 14 days; type: organism-based; settings: in vivo, time 14 day
[31] = Oral bioavailability in rat at 10 mg/kg measured after 24 hrs by HPLC-UV method; type: ADME, organism-based; settings: in vivo
[32] = Cmax in rat plasma at 20 mg/kg, po measured after 24 hrs by HPLC-UV method; type: ADME, organism-based; set-up: time 24 hrs, dose 20 mg/kg, route po
[33] = Tmax in rat at 10 mg/kg, po measured after 24 hrs by HPLC-UV method; type: ADME, organism-based; settings: in vivo
[34] = Apparent volume of distribution in rat at 20 mg/kg, po measured after 24 hrs by HPLC-UV method; type: ADME, organism-based; settings: in vivo
[35] = Toxicity in female ICR mouse assessed as survival rate at 100 mg/kg, iv administered as single dose for 14 days; type: organism-based; settings: in vivo, time 14 day
Mus musculus [36] = experiment: Antineuroinflammatory activity against MPTP induced parkinson's disease in C57BL/6 mouse model assessed as decrease in IbA1+ microglial cells in striatum at 10 mg/kg, po administered for 8 days by immunohistochemistry analysis; type: functional, organism-based; settings: time 8.0 day
[37] = Elimination half life in rat at 2 mg/kg, iv measured after 24 hrs by HPLC-UV method; type: ADME, organism-based; settings: in vivo, read-out: beta t1/2 (converted)
[38] = Toxicity in male ICR mouse assessed as survival rate at 10 mg/kg, iv administered as single dose for 14 days; type: organism-based; settings: in vivo, time 14 day
[39] = Tmax in rat at 20 mg/kg, po measured after 24 hrs by HPLC-UV method; type: ADME, organism-based; settings: in vivo
[40] = Elimination half life in rat at 20 mg/kg, po measured after 24 hrs by HPLC-UV method; type: ADME, organism-based; settings: in vivo, read-out: beta t1/2 (converted)
Mus musculus [41] = experiment: Antineuroinflammatory activity against MPTP induced parkinson's disease in C57BL/6 mouse model assessed as […] tyrosine hydroxylase positive dopaminergic neuron in striatum at 10 mg/kg, po administered for 8 days by immunohistochemistry analysis; type: functional, organism-based; settings: time 8.0 day
[42] = Toxicity in male ICR mouse assessed as survival rate at 300 mg/kg, iv administered as single dose for 14 days; type: organism-based; settings: in vivo, time 14 day
[43] = Toxicity in female ICR mouse assessed as survival rate at 1000 mg/kg, po administered as single dose for 14 days; type: organism-based; settings: in vivo, time 14 day
[44] = AUClast in rat at 2 mg/kg, iv measured after 24 hrs by HPLC-UV method; type: ADME, organism-based; set-up: time 24 hrs, dose 2 mg/kg, route iv; settings: in vivo
[45] = Cmax in rat plasma at 10 mg/kg, po measured after 24 hrs by HPLC-UV method; type: ADME, organism-based; set-up: time 24 hrs, dose 10 mg/kg, route po
[46] = Apparent volume of distribution in rat at 10 mg/kg, po measured after 24 hrs by HPLC-UV method; type: ADME, organism-based; settings: in vivo
[47] = Elimination half life in rat at 10 mg/kg, po measured after 24 hrs by HPLC-UV method; type: ADME, organism-based; settings: in vivo, read-out: beta t1/2 (converted)

## CN1C(=S)N(C2CCCCC2)C(=O)/C1=C\c1ccc(N(C)CCO)cc1
[1]
  Dose normalized clearance: 0.217 L/h
[2]
  survival at 336 h: 100%
[3]
  remaining at 0.5 h: 76.3%
[4]
  k el at 24 h: 4.72e-05 s⁻¹
Mus musculus [5]
  Activity: Active
[6]
  survival at 336 h: 100%
[7]
  bioavailability: 88.9%
[8]
  survival at 336 h: 100%
[9]
  Papp at 4 h: 13.6 ×10⁻⁶ cm/s
[10]
  AUC(0-t) at 24 h: 1310 ng·h/mL
BV-2 [11]
  Activity: Active
[12]
  survival at 336 h: 100%
[13]
  Vd: 0.211 L
[14]
  AUC(0-t) at 24 h: 4160 ng·h/mL
Mus musculus [15]
  Activity: Active
BV-2 [16]
  inhibition: Dose-Dependent Effect
[17]
  k el at 24 h: 4.42e-05 s⁻¹
[18]
  clearance: 3.62 mL/min
[19]
  CL/F: 5.68 mL/min
[20]
  survival at 336 h: 100%
[21]
  survival at 336 h: 100%
[22]
  survival at 336 h: 100%
[23]
  survival at 336 h: 100%
BV-2 [24]
  inhibition: Active
BV-2 [25]
  Activity: Active
[26]
  k el at 24 h: 0.000367 s⁻¹
BV-2 [27]
  Activity: Active
[28]
  survival at 336 h: 100%
[29]
  C0 at 24 h: 1700 ng/mL
[30]
  survival at 336 h: 100%
[31]
  bioavailability: 56%
[32]
  Cmax: 783 ng/mL
[33]
  Tmax: 4.98 min
[34]
  Vd/F: 1.82 L
[35]
  survival at 336 h: 100%
Mus musculus [36]
  Activity: Active
[37]
  half-life: 47.4 min
[38]
  survival at 336 h: 100%
[39]
  Tmax: 40.2 min
[40]
  half-life: 368 min
Mus musculus [41]
  Activity: Active
[42]
  survival at 336 h: 100%
[43]
  survival at 336 h: 100%
[44]
  AUC(0-t) at 24 h: 468 ng·h/mL
[45]
  Cmax: 609 ng/mL
[46]
  Vd/F: 1.99 L
[47]
  half-life: 301 min
